pIC50: −log10 of the molar value. ≈ marks a conversion by molar mass, not a printed value.
Columns and labels:
[1] = Kinetic solubility of the compound in pH 7.4 PBS buffer incubated for 2 hrs using orbital shaker by LC-UV mass spectrometry; type: physicochemical; details: read-out: Kinetic_solubility
[2] = Distribution coefficient, logD of compound by chromatographic method; type: physicochemical; details: octanol/water
[3] = molecular target: Rho-associated protein kinase 2 (Homo sapiens, UniProt O75116); test: Inhibition of recombinant N-terminal GST-tagged human ROCK2 (5 to 554 residues) expressed in baculovirus infected Sf9 cells using S6K as substrate incubated for 30 mins in presence of ATP by ADP Glo kinase assay
[4] = Lipophilicity, logP of compound; type: physicochemical; details: octanol/water
[5] = Inhibition of ROCK in rat A7R5 cells assessed as cofilin serine 3 phosphorylation incubated for 1 hr by ICW assay; details: A7R5, 1 h
[6] = molecular target: T1, cGMP-dependent protein kinase 1 (Homo sapiens, UniProt Q13976); test: Inhibition of full length recombinant N-terminal GST-tagged human PKG expressed in baculovirus infected Sf9 insect cells using RSK as substrate preincubated for 15 mins followed by substrate addition and measured after 30 mins in presence of ATP by ADP Glo kinase assay
T1 sequence (Q13976 whole entry): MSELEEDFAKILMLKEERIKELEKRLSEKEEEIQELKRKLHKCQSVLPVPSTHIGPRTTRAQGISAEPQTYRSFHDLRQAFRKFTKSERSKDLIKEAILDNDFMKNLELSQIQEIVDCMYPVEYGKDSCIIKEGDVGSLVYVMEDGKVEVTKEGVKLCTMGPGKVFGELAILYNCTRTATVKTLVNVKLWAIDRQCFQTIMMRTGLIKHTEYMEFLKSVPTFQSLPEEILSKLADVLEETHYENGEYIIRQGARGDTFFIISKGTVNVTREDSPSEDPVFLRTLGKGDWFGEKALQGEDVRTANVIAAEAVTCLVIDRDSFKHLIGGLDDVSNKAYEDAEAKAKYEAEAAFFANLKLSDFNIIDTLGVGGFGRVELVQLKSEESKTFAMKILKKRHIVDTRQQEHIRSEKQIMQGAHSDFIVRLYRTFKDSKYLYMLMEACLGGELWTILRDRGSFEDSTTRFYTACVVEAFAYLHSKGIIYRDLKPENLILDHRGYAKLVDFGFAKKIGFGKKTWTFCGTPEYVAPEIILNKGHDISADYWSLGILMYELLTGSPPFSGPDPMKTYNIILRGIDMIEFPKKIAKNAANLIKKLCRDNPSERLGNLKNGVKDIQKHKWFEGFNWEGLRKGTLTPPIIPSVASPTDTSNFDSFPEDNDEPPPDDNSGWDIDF

[7] = Metabolic stability in mouse liver microsomes assessed as intrinsic clearance at 1 uM measured upto 40 mins in presence of NADPH by LC-MS/MS analysis; type: ADME, Microsome; details: read-out: CLH
[8] = Apparent permeability in MDCK-MDR1 cells at 10 uM after 1 hr by LC-MS/MS analysis; type: ADME, cell-based, Canis lupus familiaris; details: dog
MDR1 = test: in vitro; details: dog, MDCK-MDR1
Description: Efflux ratio of apparent permeability across basolateral to apical side to apical to basolateral side in MDCK-MDR1 cells at 10 uM measured after 1 hr by LC-MS/MS analysis

Sequence of Rho-associated protein kinase 2 (O75116 whole entry, the tested form may be a part): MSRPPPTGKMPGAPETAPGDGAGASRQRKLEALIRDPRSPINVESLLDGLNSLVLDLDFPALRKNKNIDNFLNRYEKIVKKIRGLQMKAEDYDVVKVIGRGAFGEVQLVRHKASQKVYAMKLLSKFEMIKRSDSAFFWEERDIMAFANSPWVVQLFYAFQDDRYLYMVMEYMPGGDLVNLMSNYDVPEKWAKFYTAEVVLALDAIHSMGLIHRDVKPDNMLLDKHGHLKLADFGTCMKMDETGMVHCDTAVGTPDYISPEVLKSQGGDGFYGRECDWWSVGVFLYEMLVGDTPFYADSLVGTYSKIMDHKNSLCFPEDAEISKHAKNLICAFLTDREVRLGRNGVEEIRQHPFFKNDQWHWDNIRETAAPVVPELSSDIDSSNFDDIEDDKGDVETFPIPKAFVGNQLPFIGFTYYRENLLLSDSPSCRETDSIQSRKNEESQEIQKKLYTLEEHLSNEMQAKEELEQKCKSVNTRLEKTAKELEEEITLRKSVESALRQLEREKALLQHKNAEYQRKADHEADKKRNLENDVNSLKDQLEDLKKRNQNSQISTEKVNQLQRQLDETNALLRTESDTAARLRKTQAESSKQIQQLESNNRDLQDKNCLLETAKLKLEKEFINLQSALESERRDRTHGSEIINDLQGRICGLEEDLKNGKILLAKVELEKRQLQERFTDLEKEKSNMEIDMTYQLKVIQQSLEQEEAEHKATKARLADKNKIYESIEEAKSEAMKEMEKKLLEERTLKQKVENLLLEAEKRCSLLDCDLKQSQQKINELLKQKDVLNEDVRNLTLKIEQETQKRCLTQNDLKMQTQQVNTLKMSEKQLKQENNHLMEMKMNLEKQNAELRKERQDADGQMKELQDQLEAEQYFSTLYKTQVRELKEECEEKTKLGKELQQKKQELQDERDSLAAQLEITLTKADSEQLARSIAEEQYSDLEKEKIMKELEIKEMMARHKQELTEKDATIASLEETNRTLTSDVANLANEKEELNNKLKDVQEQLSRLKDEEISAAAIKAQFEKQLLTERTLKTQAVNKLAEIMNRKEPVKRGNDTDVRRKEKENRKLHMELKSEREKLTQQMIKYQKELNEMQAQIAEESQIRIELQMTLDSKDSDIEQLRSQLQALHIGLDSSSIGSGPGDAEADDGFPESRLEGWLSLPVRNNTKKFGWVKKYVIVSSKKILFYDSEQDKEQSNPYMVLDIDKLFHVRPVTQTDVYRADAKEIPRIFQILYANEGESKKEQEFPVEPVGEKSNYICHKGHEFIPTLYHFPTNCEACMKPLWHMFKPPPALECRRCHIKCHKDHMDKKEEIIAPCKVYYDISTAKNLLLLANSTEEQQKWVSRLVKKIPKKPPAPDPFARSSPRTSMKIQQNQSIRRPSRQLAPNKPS

solubility kinetic at 2 h [1] [µM]	chromatographic logD [2]	pIC50 [3]	logP [4]	pIC50 [5]	pIC50 [6]	CLint scaled at 1 µM [7] [mL/min/kg]	Papp at 1 h, 10 µM [8] [×10⁻⁶ cm/s]	efflux ratio at 1 h, 10 µM (MDR1)	Structure (SMILES)
		6.27		< 5.30					COc1cccc([C@@H](C)NC(=O)N2CCN(c3ccncc3)C(=O)C2)c1
		7.13		6.17	4.28				COc1cccc([C@@H](C)NC(=O)N2CCC(c3ccncc3)CC2)c1
11 (≈ 3.88 µg/mL)		6.07		< 5.30					COc1cccc([C@@H](C)NC(=O)[C@@H]2CC[C@@H](c3ccncc3)C[C@@H]2C)c1
		8.05		7.15	4.64				COc1cccc([C@@H](C)NC(=O)N2CC[C@H](c3ccncc3)C[C@H]2C)c1
		5.79		5.48	4.31				COc1cccc([C@@H](C)NC(=O)N2CC[C@H](c3ccncc3)C[C@@H]2C)c1
		7.01		6.01	5.30				COc1cccc([C@@H](C)NC(=O)[C@H]2CC[C@H](c3ccncc3)CC2)c1
		5.32		5.84					COc1cccc([C@@H](C)NC(=O)N2CCN(c3ccncc3)CC2)c1
		7.46		6.60	4.71				COc1cccc([C@@H](C)NC(=O)N2CC[C@@H](c3ccncc3)C[C@H]2C)c1
		7.64		6.58	4.44				COc1cccc([C@@H](C)NC(=O)N2CCN(c3ccncn3)C[C@H]2C)c1
		5.36		< 5.30	4.61				COc1cccc([C@@H](C)NC(=O)[C@H]2CC[C@@H](c3ccncc3)CC2)c1
130 (≈ 45.8 µg/mL)		7.35		6.02	4.47	90	77.6	1.1	COc1cccc([C@@H](C)NC(=O)[C@H]2CC[C@H](c3ccncc3)C[C@H]2C)c1
		5.89		5.31	4.27				COc1cccc([C@@H](C)NC(=O)N2CC[C@@H](c3ccncc3)C[C@@H]2C)c1

Continued, compound first:

Structure (SMILES)	solubility kinetic at 2 h [1] [µM]	chromatographic logD [2]	pIC50 [3]	logP [4]	pIC50 [5]	pIC50 [6]	CLint scaled at 1 µM [7] [mL/min/kg]	Papp at 1 h, 10 µM [8] [×10⁻⁶ cm/s]	efflux ratio at 1 h, 10 µM (MDR1)
COc1cccc(CC(=O)Nc2cc(-c3ccnc(F)c3)cs2)c1	17 (≈ 5.82 µg/mL)	2.83	7.82	4.53	6.08				
COc1cccc([C@@H](C)NC(=O)N2CCC(c3ccncc3F)CC2)c1			7.35		6.14	4.50			
COc1cccc([C@@H](C)NC(=O)c2ccc(-c3ccncc3)nc2)c1			8.40		7.36	7.41			
COc1ccc(Cl)c([C@@H](C)NC(=O)N2CCN(c3ccncc3F)C[C@H]2C)c1	120 (≈ 48.8 µg/mL)	2.7		3.3	6.79	4.94	199	122	
COc1cc([C@@H](C)NC(=O)N2CCN(c3ccncc3F)C[C@H]2C)ccc1F			8.52		7.48	5.63			
CS(=O)(=O)Nc1cccc(CC(=O)Nc2cc(-c3ccnc(F)c3)cs2)c1	77 (≈ 31.2 µg/mL)			3.45					
O=S(=O)(c1cccc2c(O)nccc12)N1CCCNCC1 [HYDROXYFASUDIL]	> 200			1.43	5.42				
C[C@@H](N)[C@H]1CC[C@H](C(=O)Nc2ccncc2)CC1 [Y-27632]		1.03		0.62	5.52				
C[C@@H]1CN(c2ccncc2F)CCN1C(=O)N[C@H](C)c1cccc2nccn12					7.74	5.09			
COc1ccc(F)c([C@@H](C)NC(=O)N2CCN(c3ccncc3F)C[C@H]2C)c1			8.15		6.97	4.88			
COc1cccc([C@@H](C)NC(=O)c2ccc(-c3ccnc(F)c3)cn2)c1			7.30		5.99				
COc1cccc([C@@H](C)NC(=O)c2ccc(-c3ccnc(F)c3)nn2)c1			6.55		5.37	5.44			
COc1cccc([C@@H](C)NC(=O)N2CCN(c3ccncc3F)CC2)c1			8.15		6.90	5.74			
